Laboratory results reported in PubChem BioAssay AID1259407 (Chemical Carcinogenesis Research Information System (CCRIS), 2018).
The source made the active and inactive calls. No rule for the calls is given here.

Tested on: CCRIS mutagenicity, Ames/micronucleus/aberration tests
Assay: CCRIS mutagenicity studies
[1] = Test System: AMES SALMONELLA TYPHIMURIUM, Strain/Indicator: TA100, Metabolic Activation: NONE, Method: STANDARD PLATE
[2] = Test System: AMES SALMONELLA TYPHIMURIUM, Strain/Indicator: TA1535, Metabolic Activation: NONE, Method: PREINCUBATION
[3] = Test System: AMES SALMONELLA TYPHIMURIUM, Strain/Indicator: TA1537, Metabolic Activation: NONE, Method: PREINCUBATION
[4] = Test System: AMES SALMONELLA TYPHIMURIUM, Strain/Indicator: TA1538, Metabolic Activation: NONE, Method: PREINCUBATION
[5] = Test System: AMES SALMONELLA TYPHIMURIUM, Strain/Indicator: TA98, Metabolic Activation: NONE, Method: PREINCUBATION
[6] = Test System: AMES SALMONELLA TYPHIMURIUM, Strain/Indicator: TA100, Metabolic Activation: NONE, Method: PREINCUBATION

CC(O)CN(C)c1ccc(NN)nn1 (stereo not drawn)
mutagenic call (Test System: AMES SALMONELLA TYPHIMURIUM, Strain/Indicator: TA97, Metabolic Activation: NONE, Method: STANDARD PLATE): active; positive | mutagenic call (Test System: AMES SALMONELLA TYPHIMURIUM, Strain/Indicator: TA97, Metabolic Activation: RAT, LIVER, S-9, AROCLOR 1254, Method: STANDARD PLATE): active; positive | mutagenic call (Test System: AMES SALMONELLA TYPHIMURIUM, Strain/Indicator: TA98, Metabolic Activation: NONE, Method: STANDARD PLATE): active; positive | mutagenic call (Test System: AMES SALMONELLA TYPHIMURIUM, Strain/Indicator: TA98, Metabolic Activation: RAT, LIVER, S-9, AROCLOR 1254, Method: STANDARD PLATE): active; positive | mutagenic call [1]: inactive; negative | mutagenic call (Test System: AMES SALMONELLA TYPHIMURIUM, Strain/Indicator: TA100, Metabolic Activation: RAT, LIVER, S-9, AROCLOR 1254, Method: STANDARD PLATE): inactive; negative | mutagenic call (Test System: AMES SALMONELLA TYPHIMURIUM, Strain/Indicator: TA102, Metabolic Activation: NONE, Method: STANDARD PLATE): active; positive | mutagenic call (Test System: AMES SALMONELLA TYPHIMURIUM, Strain/Indicator: TA102, Metabolic Activation: RAT, LIVER, S-9, AROCLOR 1254, Method: STANDARD PLATE): inactive; negative | mutagenic call (Test System: AMES SALMONELLA TYPHIMURIUM, Strain/Indicator: TA1535, Metabolic Activation: NONE, Method: STANDARD PLATE): inactive; negative | mutagenic call (Test System: AMES SALMONELLA TYPHIMURIUM, Strain/Indicator: TA1535, Metabolic Activation: RAT, LIVER, S-9, AROCLOR 1254, Method: STANDARD PLATE): inactive; negative | mutagenic call (Test System: AMES SALMONELLA TYPHIMURIUM, Strain/Indicator: TA1537, Metabolic Activation: NONE, Method: STANDARD PLATE): active; positive | mutagenic call (Test System: AMES SALMONELLA TYPHIMURIUM, Strain/Indicator: TA1537, Metabolic Activation: RAT, LIVER, S-9, AROCLOR 1254, Method: STANDARD PLATE): active; positive | mutagenic call (Test System: AMES SALMONELLA TYPHIMURIUM, Strain/Indicator: TA1538, Metabolic Activation: NONE, Method: STANDARD PLATE): active; positive | mutagenic call (Test System: AMES SALMONELLA TYPHIMURIUM, Strain/Indicator: TA1538, Metabolic Activation: RAT, LIVER, S-9, AROCLOR 1254, Method: STANDARD PLATE): active; positive | mutagenic call (Test System: E. COLI, Strain/Indicator: WP2, Metabolic Activation: RAT, LIVER, S-9, AROCLOR 1254, Method: STANDARD PLATE): inactive; negative | mutagenic call (Test System: E. COLI, Strain/Indicator: WP2 UVRA, Metabolic Activation: RAT, LIVER, S-9, AROCLOR 1254, Method: STANDARD PLATE): active; positive

C1=Cc2c3ccccc3cc3c2c1cc1ccccc13
mutagenic call (Test System: CHINESE HAMSTER OVARY, Strain/Indicator: V-79/6-THIOGUANINE, Metabolic Activation: RAT, LIVER, S-9, AROCLOR 1254, Method: FLASK ASSAY): active; positive | mutagenic call (Test System: CHINESE HAMSTER V-79, Strain/Indicator: V-79/6-THIOGUANINE, Metabolic Activation: RAT, LIVER, S-9, AROCLOR 1254, Method: SUSPENSION/PLATE): active; positive

O=c1c2c(c3c(ccc4ccc[nH]c43)c1O)O2
mutagenic call [1]: active; positive

O=[N+]([O-])c1cccc(O)c1
mutagenic call (Test System: AMES SALMONELLA TYPHIMURIUM, Strain/Indicator: TA97, Metabolic Activation: HAMSTER, LIVER, S-9, AROCLOR 1254 (10%), Method: PREINCUBATION): inactive; negative | mutagenic call (Test System: AMES SALMONELLA TYPHIMURIUM, Strain/Indicator: TA97, Metabolic Activation: NONE, Method: PREINCUBATION): inactive; negative | mutagenic call (Test System: AMES SALMONELLA TYPHIMURIUM, Strain/Indicator: TA97, Metabolic Activation: RAT, LIVER, S-9, AROCLOR 1254 (10%), Method: PREINCUBATION): inactive; negative | mutagenic call (Test System: AMES SALMONELLA TYPHIMURIUM, Strain/Indicator: TA98, Metabolic Activation: HAMSTER, LIVER, S-9, AROCLOR 1254 (10%), Method: PREINCUBATION): inactive; negative | mutagenic call (Test System: AMES SALMONELLA TYPHIMURIUM, Strain/Indicator: TA98, Metabolic Activation: RAT, LIVER, S-9, AROCLOR 1254 (10%), Method: PREINCUBATION): inactive; negative | mutagenic call (Test System: AMES SALMONELLA TYPHIMURIUM, Strain/Indicator: TA98, Metabolic Activation: RAT, LIVER, S-9, KANECHLOR 500, Method: PREINCUBATION): active; positive | mutagenic call (Test System: AMES SALMONELLA TYPHIMURIUM, Strain/Indicator: TA98, Method: PREINCUBATION): inactive; negative | mutagenic call (Test System: AMES SALMONELLA TYPHIMURIUM, Strain/Indicator: TA100, Metabolic Activation: HAMSTER, LIVER, S-9, AROCLOR 1254 (10%), Method: PREINCUBATION): inactive; negative | mutagenic call (Test System: AMES SALMONELLA TYPHIMURIUM, Strain/Indicator: TA100, Metabolic Activation: RAT, LIVER, S-9, AROCLOR 1254 (5, 10 OR 30%), Method: PREINCUBATION): inactive; negative | mutagenic call (Test System: AMES SALMONELLA TYPHIMURIUM, Strain/Indicator: TA100, Metabolic Activation: RAT, LIVER, S-9, KANECHLOR 500, Method: PREINCUBATION): active; positive | mutagenic call (Test System: AMES SALMONELLA TYPHIMURIUM, Strain/Indicator: TA100, Method: PREINCUBATION): inactive; negative | mutagenic call (Test System: AMES SALMONELLA TYPHIMURIUM, Strain/Indicator: TA1535, Metabolic Activation: HAMSTER, LIVER, S-9, AROCLOR 1254 (10%), Method: PREINCUBATION): inactive; negative | mutagenic call [2]: inactive; negative | mutagenic call (Test System: AMES SALMONELLA TYPHIMURIUM, Strain/Indicator: TA1535, Metabolic Activation: RAT, LIVER, S-9, AROCLOR 1254 (10%), Method: PREINCUBATION): inactive; negative | mutagenic call (Test System: AMES SALMONELLA TYPHIMURIUM, Strain/Indicator: TA1535, Method: PREINCUBATION): inactive; negative | mutagenic call [3]: inactive; negative | mutagenic call (Test System: AMES SALMONELLA TYPHIMURIUM, Strain/Indicator: TA1537, Method: PREINCUBATION): inactive; negative | mutagenic call [4]: inactive; negative | mutagenic call (Test System: AMES SALMONELLA TYPHIMURIUM, Strain/Indicator: TA1538, Method: PREINCUBATION): inactive; negative

CC1=C(O)C(=O)CC1
mutagenic call [5]: inactive; negative | mutagenic call (Test System: AMES SALMONELLA TYPHIMURIUM, Strain/Indicator: TA98, Metabolic Activation: RAT, LIVER, S-9, AROCLOR 1254, Method: PREINCUBATION): inactive; negative | mutagenic call [6]: inactive; negative | mutagenic call (Test System: AMES SALMONELLA TYPHIMURIUM, Strain/Indicator: TA100, Metabolic Activation: RAT, LIVER, S-9, AROCLOR 1254, Method: PREINCUBATION): inactive; negative | mutagenic call (Test System: AMES SALMONELLA TYPHIMURIUM, Strain/Indicator: TA102, Metabolic Activation: NONE, Method: PREINCUBATION): inactive; negative | mutagenic call (Test System: AMES SALMONELLA TYPHIMURIUM, Strain/Indicator: TA102, Metabolic Activation: RAT, LIVER, S-9, AROCLOR 1254, Method: PREINCUBATION): inactive; negative

Nn1c2ccccc2c2cnccc21
mutagenic call [3]: active; positive | mutagenic call (Test System: AMES SALMONELLA TYPHIMURIUM, Strain/Indicator: TA1537, Metabolic Activation: RAT, LIVER, S-9, PHENOBARBITAL, Method: PREINCUBATION): inactive; negative

C[n+]1c2ccccc2c(N)c2ccccc21
mutagenic call [2]: active; positive | mutagenic call (Test System: AMES SALMONELLA TYPHIMURIUM, Strain/Indicator: TA1535, Metabolic Activation: RAT, LIVER, S-9, TETRACHLOROBIPHENYL, Method: PREINCUBATION): active; positive | mutagenic call [3]: active; positive | mutagenic call (Test System: AMES SALMONELLA TYPHIMURIUM, Strain/Indicator: TA1537, Metabolic Activation: RAT, LIVER, S-9, TETRACHLOROBIPHENYL, Method: PREINCUBATION): active; positive | mutagenic call [4]: inactive; negative | mutagenic call (Test System: AMES SALMONELLA TYPHIMURIUM, Strain/Indicator: TA1538, Metabolic Activation: RAT, LIVER, S-9, TETRACHLOROBIPHENYL, Method: PREINCUBATION): inactive; negative | mutagenic call (Test System: AMES SALMONELLA TYPHIMURIUM, Strain/Indicator: TA1977, Metabolic Activation: NONE, Method: PREINCUBATION): active; positive | mutagenic call (Test System: AMES SALMONELLA TYPHIMURIUM, Strain/Indicator: TA1977, Metabolic Activation: RAT, LIVER, S-9, TETRACHLOROBIPHENYL, Method: PREINCUBATION): active; positive

Cc1c(N)cccc1N=Nc1cccc(N)c1C
mutagenic call [5]: inactive; negative | mutagenic call (Test System: AMES SALMONELLA TYPHIMURIUM, Strain/Indicator: TA98, Metabolic Activation: RAT, LIVER, S-9, PHENOBARBITAL AND 5,6-BENZOFLAVONE, Method: PREINCUBATION): active; positive | mutagenic call [6]: inactive; negative | mutagenic call (Test System: AMES SALMONELLA TYPHIMURIUM, Strain/Indicator: TA100, Metabolic Activation: RAT, LIVER, S-9, PHENOBARBITAL AND 5,6-BENZOFLAVONE, Method: PREINCUBATION): active; positive
